According to US4593036A, “(-)-Trans-4-(4-fluorophenyl)-3-[(4-methoxyphenoxy)meth yl]-1-methylpiperidine useful as 5-HT potentiator” (priority 1984, dated 1986):

Assays:
5-HT uptake = assay: Test 173: potentiation of 5-HTP (5-hydroxytryptophane) induced hypermotility in mice (inhibition of 5HT uptake, or 5HT potentiation, test); assay type: in vivo, mice (female, NMRI strain); details: for FG 8033 is better by: 5-HT Potentiation % / FG 8033 is better by: 5-HT Potentiation Factor: FG 8033 compared with the listed compound, mice s.c.; for ED50: Mus musculus, sc, read-out: Test 173 (dose increasing the activity to double the activity found with controls receiving 5-HTP alone; ED50), s.c., 5-HTP 150 mg/kg i.p., motility 45-75 min after 5-HTP, water-soluble salt
Excerpt: I. POTENTIATION OF 5-HTP (5-HYDROXYTRYPTOPHANE) INDUCED HYPERMOTILITY IN MICE
This behavior is characterized by continuous jerky locomotion, head movements from side to side, abduction of the hind limbs, tremor, and lordosis.
Measurement of the motility after administration of test drugs to 5-HTP-pretreated mice is therefore used as a test for 5-HT-potentiation, which most probably proceeds through an inhibition of 5-HT uptake.
Female mice of the NMRI strain weighing 20-22 g are used. The controls receive 5-HTP 150 mg/kg (15 ml/kg) i.p. (i.p.=intraperitoneally) and thirty (30) minutes later physiological saline (20 ml/kg) s.c. (s.c.=subcutaneously). The motility is measured by an Animex™ motimeter 45-75 minutes after 5-HTP administration. The test animals received test substance s.c. (20 ml/kg) instead of physiological saline. Five groups of two (2) mice are used for control and per dose of each test drug. the test substance is dosed according to the dose scale 1, 1.6, 2.5, 4, 6.3, and 10 mg/kg etc.
The activity of the test animals is compared to the activity of controls. The best straight line is fitted through the points in a coordinate system (abscissa log dose, ordinate log activity). […] The activity of controls is investigated in thirty (30) groups of two (2) mice.

mice = assay: in vivo; details: for FG 8033 is better by: T.I. % / FG 8033 is better by: T.I. Factor: FG 8033 compared with the listed compound, mice s.c.
Experimental: (§1) (J. Buus Lassen, European Journal of Pharmacology 47, 351-358 (1978)). See also Squires in Acta Pharmacol. et Toxicol, 1972, 31 Suppl. 1,35 for a description of a further procedure for measurement of the same 5-HT uptake-inhibitory phenomenon.
(§2) II. ACUTE TOXICITY IN MICE
(§3) A variation of the procedure of J. Buus Lassen, et al. in European Journal of Pharmacology 32, 108-115 (1975) is employed. The test drug is administered s.c. in increasing doses to mice, four (4) animals at each dose level.
(§4) Results are expressed as LD50 = . . . mg/kg s.c.

in vivo = details: mouse, in vivo, sc
Experimental: as §1, §2, §3, §4

[1] = versus (+) trans isomer FG 8032
[2] = versus (+), trans des-p-fluoro compound FG 4963
[3] = versus (-), trans des-p-fluoro compound FG 4962

SMILES	FG 8033 is better by: 5-HT Potentiation % (5-HT uptake)	FG 8033 is better by: 5-HT Potentiation Factor (5-HT uptake)	ED50 (5-HT uptake; mice)	FG 8033 is better by: T.I. % (mice)	FG 8033 is better by: T.I. Factor (mice)	also measured
COc1ccc(OC[C@@H]2CN(C)CC[C@H]2c2ccc(F)cc2)cc1 (relative stereo) [FG 98-I]	260%	2.6	1.3 mg/kg	174%	1.74	
COc1ccc(OC[C@@H]2CN(C)CC[C@H]2c2ccccc2)cc1 (relative stereo) [FG 4932, reference compound]			7.7 mg/kg			
COc1ccc(OC[C@@H]2CN(C)CC[C@H]2c2ccccc2)cc1 (single isomer, unassigned) [FG 4962, reference compound]			3.8 mg/kg			
COc1ccc(OC[C@H]2CN(C)CC[C@@H]2c2ccccc2)cc1 (single isomer, unassigned) [FG 4963, reference compound]			2.8 mg/kg			
COc1ccc(OC[C@H]2CNCC[C@@H]2c2ccccc2)cc1 (single isomer, unassigned) [FG 4996, reference compound]	1800%	18	9 mg/kg	5714%	57.14	
COc1ccc(OC[C@@H]2CNCC[C@H]2c2ccccc2)cc1 (single isomer, unassigned) [FG 7006, reference compound]	4000%	40	20 mg/kg	4444%	44.44	selectivity ratio (in vivo): 18; Test 001 acute toxicity LD50 (mice; mice, s.c., lethality at 24 hours, water-soluble salt): 350 mg/kg
CN1CC[C@@H](c2ccc(F)cc2)[C@H](COc2ccc3c(c2)OCO3)C1 (single isomer, unassigned) [FG 7043, reference compound]			4 mg/kg			
COc1ccc(OC[C@@H]2CNCC[C@H]2c2ccc(F)cc2)cc1 (single isomer, unassigned) [FG 7080, (-)-trans-4-(4-fluorophenyl)-3-[(4-methoxyphenoxy)-methyl]-piperidine]			1 mg/kg			
COc1ccc(OC[C@@H]2CN(C)CC[C@H]2c2ccc(F)cc2)cc1.Cl (single isomer, unassigned) [FG 8032, (+)-trans-4-(4-fluorophenyl)-3-[(4-methoxyphenoxy)methyl]-1-methylpiperidine hydrochloride]			23 mg/kg			
COc1ccc(OC[C@@H]2CN(C)CC[C@H]2c2ccc(F)cc2)cc1 (single isomer, unassigned) [FG 8033, (-)-trans-4-(4-fluorophenyl)-3-[(4-methoxyphenoxy)-methyl]-1-methyl-piperidine]			0.5 mg/kg			degree of activity in test for potentiation of 5-hydroxytryptophane-induced hypermotility (in words) (5-HT uptake; mice): remarkably and unpredictably superior in its 5-HT potentiation to the most structurally closely-related compounds evaluated; 5-HT potentiation activity relative to FG 8032 (5-HT uptake; [1]): 46 times; 5-HT potentiation activity relative to FG 8032, percent (5-HT uptake; [1]): 4600%; superiority as to 5-HT potentiation over FG 4963, factor (5-HT uptake; [2]): 5.6; superiority as to 5-HT potentiation over FG 4963, percent (5-HT uptake; [2]): 560%; 5-HT potentiation activity relative to FG 4962 (5-HT uptake; [3]): 7.6 times; 5-HT potentiation activity relative to FG 4962, percent (5-HT uptake; [3]): 760%; Therapeutic Index (in words) (mice; calculated as LD50/ED50): even more remarkably and unpredictably superior to those most structurally closely-related compounds when considering its Therapeutic Index; Therapeutic Index relative to FG 8032 (mice; [1]): more than 47 times; Therapeutic Index relative to FG 8032, percent (mice; [1]): > 4700%; superiority as to Therapeutic Index over FG 4963, factor (mice; [2]): greater than 5.97 times; superiority as to Therapeutic Index over FG 4963, percent (mice; [2]): > 597%; Therapeutic Index relative to FG 4962 (mice; [3]): more than 15 times; Therapeutic Index relative to FG 4962, percent (mice; [3]): > 1500%
CC(=O)O.COc1ccc(OC[C@@H]2CNCC[C@H]2c2ccc(F)cc2)cc1 (single isomer, unassigned) [FG 8035, (+)-trans-4-(4-fluorophenyl)-3-((4-methoxyphenoxy)methyl)-piperidine acetate]	4400%	44	22 mg/kg	3333%	33.33	
